Measurements as given in patent publication US9174988B2, “Small molecule inhibitors of hepatitis C virus” (TRUSTEES OF BOSTON UNIVERSITY, priority 2009, dated 2015).
Read-outs that look alike come from different tables or passages of the source.

Columns and labels:
[1] = biological target: T1, core106 (HCV core protein domain) dimerization (Hepatitis C virus genotype 1a, UniProt P27958); test: Core106 ALPHA screen (AlphaScreen) core dimerization assay; type: binding; settings: for inhibition of core dimerization (in words): level of activity in words, partly relative to 16
T1 construct: a core106 protein domain was tagged with either Glutathione-S-transferase (GST) tag or a Flag peptide tag
Method: FIG. 16b is a dose-response analysis of compound 1 (SL201). Core106 ALPHA screen assay was used for the dose-response analyses. The compound was dosed from 0 to 100 μM. The IC50 was calculated using a non-linear regression ‘Log (inhibitor) versus response’ with four points for each concentration.
Core106 ALPHA screen assay was used for the dose response analyses. The compounds were dosed from 0 to 100 μM. The IC50 were calculated using a nonlinear regression “Log (inhibitor) vs. response” with 4 points for each concentration. The difference in IC50 for compound 1 (SL201) is due to the using two different lots of SL201 and the values are within experimental error.
This assay employed the AlphaScreen® technology, a secondary Amplified Luminescent Proximity Homogeneous Assay as described in Kota, et al, J. Gen Virol. (2009) 90: 1319-1328, content of which is herein incorporated by reference. AlphaScreen is based on the use of photoactive donor and acceptor beads that recognize specific tags on interacting proteins (Peppard, 2003). Core106 dimerization was confirmed using AlphaScreen technology in which a core106 protein domain was tagged with either Glutathione-S-transferase (GST) tag or a Flag peptide tag. The untagged core106 protein domain was used as a model competitor in the assay. The proteins were diluted to working concentrations in ‘protein buffer’ (100 mM HEPES pH 7.5, 1 mM EDTA, 5 mM DTT, 0.1% CHAPS, 10% glycerol). The donor and acceptor beads were diluted to working concentrations in ‘bead buffer’ (20 mM HEPES pH7.5, 125 mM NaCl, 0.1% BSA, 0.1% CHAPS). GST-tagged core106 (150 nM) was incubated with 150 nM of Flag-tagged core106 for 1 h at room temperature. Anti-Flag acceptor beads (Perkin Elmer Lifesciences) were added to the proteins at a final concentration of 20 μg/ml and incubated for 1 h at room temperature. Then, Glutathione donor beads (Perkin Elmer Lifesciences) were added to the proteins at a final concentration of 20 μg/ml and incubated for 1 h. The assays were executed in a white 384 well Packard opti plate (Perkin Elmer Lifesciences) and were read on Perkin Elmer Envision.
Uninhibited or 0% inhibition control is defined as wells containing only GST-core106 and Flag-core106. 100% inhibition control is defined as wells containing GST-core106 and Flag-core106 with core106 as an inhibitor. Test compound is wherein the test compound is analyzed.
Compounds were tested in triplicate in a 10-point series starting at a nominal test concentration of 50 nM. For each test compound, percent inhibition was plotted against compound concentration. A four parameter equation describing a sigmoidal dose-response curve was plotted using GraphPad Prism® (GraphPad Software Inc). The reported IC50 values were generated from fitted curves by solving for the X-intercept value at the 50% inhibition level of the Y-intercept value.

[2] = XTT cytotoxicity assay (CC50); type: cell-based; settings: human, CC50
Excerpt: (§1) This assay utilized the compound XTT (2,3-bis[2-methoxy-4-nitro-5-sulfophenyl]-2H-tetrazolium-5-carboxyanilide inner salt) with addition of an electron coupling agent phenazine methosulfate (PMS) to measure mitochondrial dehydrogenases activity in living cells, e.g., Huh-7.5 cells. Dehydrogenases in mitochondria of living cells cleave the tetrazolium ring of XTT changing the color of the solution from clear to orange. As designed, compounds that reduce cell viability will reduce activity of the mitochondrial dehydrogenases, and leave a decreased orange color in solution.
(§2) The Huh-7.5 cell line was routinely cultured in 15-cm dishes at 37 degrees C. and 95% relative humidity (RH). The growth media consisted of DMEM supplemented with 10% v/v certified fetal bovine serum, 4 mM L-glutamine, 1 mM sodium pyruvate, 1× antibiotic mix (penicillin, streptomycin, and glutamine), and 1× non-essential amino acids.
(§3) Prior to the start of the assay 8000 cells in 100 microliter volume of colorless growth media were dispensed into each well of 96-well tissue culture-treated microtiter plates and incubated overnight at 37 degrees C. (5% CO2, 95% RH) to allow cells to adhere to the plate. The next day, 100 microliter of test compound in DMSO (1.25% final DMSO concentration) and DMSO only were added to wells. Wells with only test compound in media without cells were used to normalize the data (to account for the color a test compound may have). Next, the plates were incubated for 72 hours at 37 degrees C. (5% CO2, 95% RH). Solution of XTT-PMS was prepared in 1×PBS and added to the cells in 50 microliter volume to each well and incubated for 4 hours at 37 degrees C. (5% CO2, 95% RH). After equilibrating the plates to room temperature for 10 minutes, optical density at 450 nm and […] was measured on Biotek plate reader.
(§4) The percent inhibition for each compound was calculated as follows: % Inhibition=((DMSO Control−Test compound)/DMSO Control)*100, wherein Test compound is defined as wells containing test compound.
(§5) Compounds were tested in triplicate in a 7-point 1:3 dilution series starting at a nominal test concentration of 320 micromolar. For each test compound, percent inhibition was plotted against compound concentration. A four parameter equation describing a sigmoidal dose-response curve was then fitted with adjustable baseline using MicroSoft Excel software. The reported CC50 values were generated from fitted curves by solving for the X-intercept value at the 50% inhibition level of the Y-intercept value.

Huh-7.5 cells = test: XTT cytotoxicity assay (CC50); type: cell-based; settings: human, 72 h
Excerpt: as §1, §2, §3, §4, §5

HCV 2a J6/JFH-1 = test: HCV infectivity assay by real-time RT-PCR of HCV RNA (EC50 at T1 and T2); type: cell-based, hepatitis C virus; settings: for EC50's (stage not specified): HCV 2a strain J6/JFH-1 in hepatoma cells; for EC50: Hepatitis C virus
Method: In this assay HCV infectivity is measured using real-time RT-PCR to monitor changes in expression of HCV 2a J6/JFH-1 RNA. Cells are incubated with test compound in the presence of HCV, followed by isolation of RNA, conversion to cDNA, and Taqman-based QPCR. As designed, a compound that inhibits HCV infectivity will reduce HCV RNA expression, leading to decreased production of the PCR amplicon, thereby reducing fluorescence, and increasing Ct.
Huh-7.5 cells were plated the day before the assay. After allowing the cells to adhere overnight, test compound was prepared in HCV supernatant by making 1:10 serial dilutions from 100 micromolar down to 0.001 micromolar. Doses of test compound in virus were added to cells and incubated for 24 hours. The next day, cell culture media was removed from each well and replaced with same dilutions of compound in complete media were added to cells and incubated for another 48 hours for T1 timepoint. Then cells were lysed and RNA was isolated using the RNeasy kit (QIAGEN, Valencia, Calif.). Supernatant from T1 was transferred to fresh naïve cells and incubated for 24 hours. Culture media were removed from cells and replaced with complete media and incubated for 48 hours for T2 timepoint. Cells for T2 timepoint were lysed and RNA was isolated using the RNeasy kit (QIAGEN, Valencia, Calif.). DNA was generated using the Taqman reverse transcription kit (Applied Biosystems, Foster City, Calif.). Quantitative real-time polymerase chain reaction (PCR) was performed in triplicate using LightCycler RNA Amplification Kit HybProbe master mix (Roche) with Taqman MGB Probe 6FAM-[…]-MGBNFQ on a model LightCycler480 real time PCR system (Roche). Data are expressed as the mean fold change plus or minus SE of 3 replicates normalized to 100 ug total RNA. Primers used were forward […] and reverse […]. The range of activity was normalized based on measurement of total RNA. Compounds were tested in triplicate in a 6-point 1:10 dilution series starting at a nominal test concentration of 100 micromolar.
The compounds were then studied in the same Huh7-5 cells infected with HCV 2a strain J6/JFH-1 (Kota, et al., ASSAY Drug Dev. Tech (2009) 8: 96). Huh-7.5 hepatoma cells were electroporated with RNA from HCV and the 72-hour supernatant was used as a source of infectious virus. This supernatant was combined with compounds identified as inhibitors of core dimerization. Two stages of infection were studied: early stage (T1), corresponding to the initial 72-hour culture of naïve cells infected in the presence of the inhibitor, and late stage (T2), corresponding to the second 72-hour passage through naïve cells. HCV RNA detected in T1 results from actual viral infection and replication. HCV RNA detected in T2 results from infectious virus secreted in T1 and replicated in freshly infected naïve cells. Real-time reverse-transcriptase PCR was done on RNA extracted and purified from the cells treated with increasing concentrations (0.001-100 μM) of each of the compounds. […] For comparative purposes, data for BILN2061a known inhibitor of the NS3/NS4A protease (Lamarre, et al., Nature (2003) 426: 186), is included.

[3] = inhibition of core dimerization, Table 3, read-out: IC50
[4] = inhibition of core dimerization, see FIG. 17, Table 2, read-out: IC50
[5] = Huh7.5, read-out: HCV2a J6/JFH-1 T1-EC50
[6] = Huh7.5, read-out: HCV2a J6/JFH-1 T2-EC50
[7] = AlphaScreen, read-out: IC50 for inhibition of core dimerization

T1 sequence (P27958 2-106): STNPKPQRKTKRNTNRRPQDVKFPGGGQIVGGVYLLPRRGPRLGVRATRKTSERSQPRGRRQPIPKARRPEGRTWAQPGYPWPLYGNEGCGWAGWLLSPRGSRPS

SMILES | IC50 [1, 3] | IC50 [1, 4] | CC50 at 72 h [2] | CC50 (Huh-7.5 cells) | EC50's (stage not specified) (HCV 2a J6/JFH-1) | EC50 (HCV 2a J6/JFH-1; [5]) | EC50 (HCV 2a J6/JFH-1; [6]) | EC50 (HCV 2a J6/JFH-1; read-out: HCV 2A T1 - EC50) | EC50 (HCV 2a J6/JFH-1; read-out: HCV 2A T2 - EC50) | IC50 [1, 7] | inhibition of core dimerization (in words) [1]
CC#CCN1c2ccccc2[C@]23CCC(=O)N(CCOC)C2=NC(C(=O)OC)=C(C(=O)OC)C13 (mixture of isomers) [Compound 15] | 2000 nM | 2000 nM | > 320 µM | > 320 µM | single digit | 4900 nM | 700 nM | 4900 nM | 700 nM |  | 
C=CCN1c2ccccc2[C@]23CCC(=O)N(Cc4ccccc4)C2=NC(C(=O)OC)=C(C(=O)OC)C13 (mixture of isomers) [Compound 16] | 1400 nM | 1400 nM | 127 µM | 127 µM | single digit | 2300 nM | 3200 nM | 2300 nM | 3200 nM | 1400 nM | 
C=CCN1c2ccccc2[C@]23CCC(=O)N(Cc4cc(OC)c(OC)c(OC)c4)C2=NC(C(=O)OC)=C(C(=O)OC)C13 (mixture of isomers) [Compound 17] | 2000 nM | 2000 nM | 5.3 µM |  |  | 3800 nM | 3000 nM | 3800 nM | 3000 nM |  | 
COC(=O)C1=C(C(=O)OC)C2N(C)c3ccc(OC)cc3[C@@]23C[C@@H](C(=O)OC)N(C(=O)CC(C)C)C3=N1 (single isomer, unassigned) [Compound 1] | 9300 nM | 9300 nM | > 320 µM | > 320 µM |  | 14800 nM | 22200 nM | 8800 nM | 8100 nM | 5700 nM | 
COc1ccc2c(O[C@@H]3C[C@H]4C(=O)N[C@]5(C(=O)O)C[C@H]5/C=C\CCCCC[C@H](NC(=O)OC5CCCC5)C(=O)N4C3)cc(-c3csc(NC(C)C)n3)nc2c1 [BILN2061, reference compound] |  |  | 5.3 µM |  |  | 72 nM | 71 nM |  |  |  | 
COC(=O)[C@@H]1C[C@@]23C(=NC(c4ccc([N+](=O)[O-])cc4)=C(C(F)(F)F)C2N(C)c2ccccc23)N1C(C)=O (some centres unmarked) [Compound 22a] |  |  | 310 µM |  |  |  |  | 1300 nM | 900 nM | 5600 nM | 
COC(=O)C1=C(C(=O)OC)C2N(CCCCCn3cc(-c4ccc(OC)cc4C)nn3)c3ccccc3[C@@]23CCC(=O)N(Cc2ccccc2)C3=N1 (some centres unmarked) [Compound 27] |  |  | > 100 µM |  |  |  |  | 1400 nM | 1100 nM | 92 nM | sub-micromolar
COC(=O)C1=C(C(=O)OC)C2N(CCCCCn3cc(CNC(C)=O)nn3)c3ccccc3[C@@]23CCC(=O)N(Cc2ccccc2)C3=N1 (some centres unmarked) [Compound 28] | 341 nM |  | 150 µM |  |  |  |  | 26200 nM | 56200 nM |  | sub-micromolar
COC(=O)C1=C(C(=O)OC)C(NCCCN2c3ccccc3[C@]34CCC(=O)N(Cc5ccccc5)C3=NC(C(=O)OC)=C(C(=O)OC)C24)[C@@]2(c3ccccc3)CCC(=O)N(Cc3ccccc3)C2=N1 (some centres unmarked) [SL235] | 2900 nM |  | > 36 µM |  |  |  |  | 88 nM | 735 nM |  | 
